Values joined by “and” are separate entries in the source; they are usually repeats but may differ in a detail not shown here. Identical values can stand only once. No end group written: not given here.
Assays:
[1] = target: T1, human calcitonin CGRP1 (CGRP1) membrane (Homo sapiens, UniProt O60894+Q16602); type: binding; conditions: for Hill slope: 0.24 nM [125I]-CGRP, Mean±SD; for binding affinity on CGRP receptors (in words): comparison between peptides
T1 construct: purchased Perkin Elmer (Waltham, Mass.)
T1 sequence (O60894 27-148): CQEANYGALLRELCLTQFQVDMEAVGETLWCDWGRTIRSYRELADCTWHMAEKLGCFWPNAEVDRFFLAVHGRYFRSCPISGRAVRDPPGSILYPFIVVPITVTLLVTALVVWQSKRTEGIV
T1 sequence (Q16602 23-461): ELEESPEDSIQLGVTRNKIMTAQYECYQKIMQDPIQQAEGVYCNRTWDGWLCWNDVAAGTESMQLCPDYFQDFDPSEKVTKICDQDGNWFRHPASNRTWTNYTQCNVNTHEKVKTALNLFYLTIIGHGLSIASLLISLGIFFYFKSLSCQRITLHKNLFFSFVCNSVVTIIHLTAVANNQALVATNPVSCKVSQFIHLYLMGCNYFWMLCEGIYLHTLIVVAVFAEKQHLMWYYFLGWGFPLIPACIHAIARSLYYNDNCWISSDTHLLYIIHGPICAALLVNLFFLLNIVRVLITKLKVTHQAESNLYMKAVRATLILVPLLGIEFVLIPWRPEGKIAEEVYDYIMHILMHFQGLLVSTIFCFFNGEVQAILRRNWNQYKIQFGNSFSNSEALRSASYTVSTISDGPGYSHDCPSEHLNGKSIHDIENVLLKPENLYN
Method: CGRP1 membrane was homogenized in the assay buffer (50 mM Tris-HCl pH 7.4, 5 mM MgCl2, 0.5% BSA, 0.05% Tween20). […] After 1 h of incubation, at room temperature, samples were filtered, using a Tomtec cell harvester, through glass fiber filters that had been presoaked in 0.05% polyethyleneimine and washed with the cold Tris buffer (50 mM Tris-HCl pH7.4). Filters were counted on a betaplate reader (Wallac).

[2] = tested on: spared nerve injury-induced neuropathic pain in rats; assay: Spared nerve injury (SNI)-induced neuropathic pain model, thermal and mechanical pain thresholds; type: in vivo, rat; conditions: rat, in vivo
Method: Of the three branches of the sciatic nerve the tibial and common peroneal nerves were cut and ligated leaving the sural nerve intact. Pre-surgery baselines (BL, 100%) of the thermal and mechanical pain thresholds of the ipsilateral hindpaws were measured using the Hargreaves thermal stimulator (6.0 A with a surface temperature of 30° C.; Hargreaves et al., 1988) and von Frey hair monofilaments (up-down method, Chaplan et al., 1994). […] All drug testing was conducted with this post-SNI period.
The rat recovered from anesthesia within a few minutes and the thermal and mechanical pain thresholds were determined at 0.5, 1, 2, 3, 4, 5 and 6 hour after the treatment using the methods described above.
Using the same test protocol in a different cohort of SNI rats, novel AFA-peptide 3 (0.1, 1 and 3 μM, each 50 μL) or the vehicle (50 μL) was injected into the ipsilateral hindpaws under a brief and light anesthesia condition (with 2.5% isoflurane). The thermal and mechanical pain thresholds were determined at 0.5, 1, 2, 3, 4, 5 and 6 hour after the treatment. […]

[3] = tested on: STZ-induced diabetic pain in rats; assay: Streptozotocin (STZ)-induced diabetic neuropathic pain model; conditions: rat, in vivo
Method: Painful peripheral neuropathy is a common secondary complication of diabetes mellitus. Streptozotocin (STZ)-induced diabetic polyneuropathy causes more broad pain and has neurogenic inflammation component in rodents (Bishnoi et al., 2011). Prior to STZ administration, each rat's baseline of thermal and mechanical thresholds on their individual hindpaws were assessed using the Hargreaves thermal pain test, and von Frey mechanical pain test, respectively.
After removing the patches, hindpaw withdrawal latencies induced by continuous and noxious heat (Hargreaves) were assessed at 1 hour post-microneedle application.

[4] = tested on: UVB radiation-induced inflammatory pain in rat cheek; type: in vivo; conditions: rat, in vivo
Excerpt: Ultraviolet B (UVB) radiation causes cutaneous inflammation in humans and animals. One important clinical consequence of UVB-induced inflammation is causing hyperalgesia. Changes in thermal sensitivities in the area of primary UVB irradiation are well documented both in humans and in the animal models (Zhang et al., 2009). […] This model provides an experimental model of post radiation pain and can mimic one type of burn pain. To determine the magnitude of anti-inflammatory pain effects for a given drug transdermally delivered by way of microneedle delivery, the depilated rat's cheeks were exposed to an inflammatory dosage of Ultraviolet B radiation (Zhang et al., 2009).
With the skin of a rat's cheek was stretched, the circular (8 mm in diameter) fiberglass applicator of the UV Curing Device (Dymax Bluewave 200) was applied to the center of the rat's cheek. To produce an appropriate inflammation, a total dose of 1200 mJ/cm^2 UVB was administered to one rat cheek for 25 seconds. The same procedure was performed on the rat's contralateral cheek. Upon completion of UVB irradiation, all rats were returned to their home cages and were assessed for thermal pain between 24-48 hours later. […] The rats were lightly anesthetized with urethane (800 mg/kg, IP) and heat-induced withdrawal latencies of the cheeks (an indicator of C fiber stimulation responses) were measured. […] A sham control group (n=6) were only completely depilated and cleansed with ethanol wipes but without UVB challenge.
After removing patches, cheek withdrawal latencies induced by continuous and noxious heat were assessed at different time points from the end of the 20 minute treatment period up to 3 hours post treatment.
The patches were applied on the rat cheek for 20 minutes. After removing the patches, cheek withdrawal latencies induced by continuous and noxious heat were assessed at different time points up to 3 hours as described above.
(§1) After removing the patches, cheek withdrawal latencies induced by continuous and noxious heat were assessed at different time points up to 3 hours.
Accordingly, anti-inflammatory effects were examined 48 hours post-UVB and after the application of the patch. Twelve rats were subjected to UVB radiation (1200 mJ/cm^2). […] The patch was placed over the inflamed area for a period of 20 minutes. […] Sham control group rats (n=6) were completely depilated and cleansed with ethanol wipes but without any other treatment. The rats were returned to their home cages, and assessed for thermal pain responses 48 hours later. As usual, cheek withdrawal latencies in response to continuous and noxious heat were recorded over a 3-hour time period (hours 49-51 post-UVB).
as §1
After removing the patches, cheek withdrawal latencies induced by continuous and noxious heat were assessed at different time points from 20 minutes post administration up to 3 hours.
Because UVB-irradiation may increase skin permeability, a topical formulation, but not limited to the sample shown here, was made.

[5] = tested on: normal physiological pain sensation in normal rats; assay: Normal rats cheek withdrawal latency to noxious heat; conditions: rat, in vivo
Method: Ideal therapeutics of anti-inflammatory pain or anti-hypersensitivity (occurred in neuropathic pain) should not interfere with normal physiological pain sensations. […] After removing the patches, cheek withdrawal latencies (mean±SEM) were assessed using continuous and noxious heat at different time points within the initial 3 hours test period.

[6] = tested on: electrocutaneous stimulation-induced facial pain in rats; assay: Electrocutaneous stimulation-induced facial inflammatory pain model; type: in vivo, rat; conditions: rat, in vivo
Method: In humans electrocutaneous stimulation elicited vasodilatation in the cheek (Vassend and Knardahl, 2005). […] Baseline facial thermal thresholds of rats (Sprague-Dawley, male, 260-300 g) were assessed on the rats' depilated left cheek and then each rat received 1 hour of electrocutaneous facial stimulation using WPI ISOSTIM™ A320 (World Precision Instruments, 0.4 mA intensity, 10 ms duration, Is inter-pulse interval). 24 hr after stimulation (Day 1), each rat's thermal pain threshold mediated by A-delta fiber and C fiber were separately measured using a thermal nociception lamp (variable voltage regulator model: No. SC-3M) to evoke A-delta and C nerve fiber-mediated cheek withdrawal. […] Thermal thresholds were measured once every 0.5 hour for the first 3 hours post-I.N. dosing, and then 4, 5, and 6 hour post-I.N. dosing. Voltage regulator set to 90V for A-delta fiber testing and 45V for C fiber testing. Cutoff set at 6 seconds and 20 seconds for A-delta fiber and C fiber testing, respectively.

[7] = tested on: paw incision-induced postoperative pain in rats; assay: Paw incision-induced postoperative pain model, mechanical pain threshold; type: in vivo, rat; conditions: rat, in vivo
Excerpt: A clinically applicable incision model in rodents is a hind-paw deep incision that produces a robust mechanical and cold allodynia, and thermal hyperalgesia (Pogatzki et al., 2003; Xu and Brennan, 2010). Male rats (Sprague-Dawley, 250-260 g, Harlan) used (n=8/group) were anesthetized with 2.5% isoflurane and the skin of the dorsolateral hindpaw surface were prepped by first depilitating it (using Nair), followed by rinsing and application of povidone-iodine. Afterwards, a 5 mm longitudinal incision was made near the hairy/glabrous border though the skin and subcutaneous fascia of the left hindpaw as described by (Pogatzki et al., 2003; Xu and Brennan, 2010). After briefly elevating the underlying muscle with curved forceps the wound is closed with a single nylon (8-0) mattress stitch.
Pre-surgery (baseline) and 24 hours after the surgery, the mechanical allodynia of the incision hindpaws of the rats were assessed using von Frey monofilaments with an up/down procedure (Chaplan et al., 1994). […] Mechanical pain thresholds were measured at 0.5, 1, 2, 3, 4, 5 and 6 hours post-intradermal injection.

[8] = tested on: UVB radiation-induced inflammatory pain in rat cheek; type: in vivo; conditions: rat, in vivo; remark: listed apart in the source

## H-NLVPTNVGPFAF-NH2 [AFA- peptide 8, NH2-N-L-V-P-T-N-V-G-P-F-A-F-CONH2]
[1]
  Hill slope: 0.88 ± 0.18

## NCC1(CC(=O)O)CCCCC1 [Gabapentin, gabapentin]
[2]
  duration of thermal antihyperalgesic effect: 3 h
  effect on thermal threshold (in words): significant antihyperalgesic effect
  time of full reversal / peak antihyperalgesic effect after application: 1 h

## H-NFLPTNVGPFAF-NH2 [AFA- peptide 7, NH2-N-F-L-P-T-N-V-G-P-F-A-F-CONH2]
[1]
  Hill slope: 1.03 ± 0.15
  binding affinity on CGRP receptors (in words): higher affinities than conventional CGRP 27-37 and CGRP 8-37

## H-NFFPTNVGPFAF-NH2 [AFA- peptide 9, NH2-N-F-F-P-T-N-V-G-P-F-A-F-CONH2]
[1]
  Hill slope: 1.07 ± 0.05
  binding affinity on CGRP receptors (in words): higher affinities than conventional CGRP 27-37 and CGRP 8-37

## YVPTAVGPFAF-NH2 [CGRP 27-37]
[1]
  Hill slope: 1.62 ± 0.25

## H-NFIPTNVGPFAF-NH2 [AFA- peptide 6, NH2-N-F-I-P-T-N-V-G-P-F-A-F-CONH2]
[1]
  Hill slope: 1.13 ± 0.13

## H-NFAPTNVGPFAF-NH2 [AFA- peptide 10, NH2-N-F-A-P-T-N-V-G-P-F-A-F-CONH2]
[1]
  Hill slope: 1.07 ± 0.01
  binding affinity on CGRP receptors (in words): higher affinities than conventional CGRP 27-37 and CGRP 8-37

## CSCC[C@H](NC(=O)CNC(=O)CNC(=O)[C@H](CO)NC(=O)[C@H](CCCNC(=N)N)NC(=O)[C@H](CO)NC(=O)[C@H](CC(C)C)NC(=O)[C@H](CC(C)C)NC(=O)CNC(=O)[C@H](C)NC(=O)[C@H](CC(C)C)NC(=O)[C@H](CCCNC(=N)N)NC(=O)[C@H](Cc1c[nH]cn1)NC(=O)[C@@H](NC(=O)[C@@H](N)C(C)C)[C@@H](C)O)C(=O)N[C@H](C(=O)N[C@@H](CCCCN)C(=O)N[C@@H](CO)C(=O)N[C@@H](CC(N)=O)C(=O)N[C@@H](Cc1ccccc1)C(=O)N[C@H](C(=O)N1CCC[C@H]1C(=O)N[C@H](C(=O)N[C@@H](CC(N)=O)C(=O)N[C@H](C(=O)NCC(=O)N[C@@H](CO)C(=O)N[C@@H](CCCCN)C(=O)N[C@@H](C)C(=O)N[C@@H](Cc1ccccc1)C(N)=O)C(C)C)[C@@H](C)O)C(C)C)C(C)C [CGRP 8-37]
[2]
  duration of anti-allodynic effect: up to 6 hours
  duration of thermal antihyperalgesic effect: up to 5 hours
  effect on thermal threshold (in words): full reversal to baseline thermal threshold values
  return toward baseline mechanical sensitivity: ~25%
  thermal and mechanical pain thresholds (in words): reduced SNI-induced neuropathic pain
  time of full reversal / peak antihyperalgesic effect after application: around 1 hour
  time of maximal anti-allodynic effect post-microneedle application: 3 h
[3]
  return to mechanical pain baseline values: 35%
  thermal threshold (in words): full return to their baseline thermal thresholds
[4]
  Average Reduced Latency for Inflammation, Mean: 9.9 s and 10.5 s and 11.2 s and 11.0 s and 12.2 s and 8.0 s and 9.1 s
  C-fiber-mediated thermal pain thresholds vs vehicle (in words): significant and substantial increase
  duration of action: 2 h
[5]
  Normal Rats Average Pain Response Latency, Mean: 10.3 s and 11.0 s and 11.2 s and 10.6 s and 10.5 s and 9.6 s and 10.1 s and 10.2 s
  analgesic effect on normal nociceptive pain (in words): did not produce any measurable analgesic effect
[6]
  A-delta fiber-mediated pain withdrawal latencies vs vehicle (in words): insignificant analgesic effects
  C-fiber-mediated pain withdrawal latencies vs vehicle (in words): even more substantial and significantly prolonged
  thermal pain thresholds in naïve, non-facial stimulation rats (in words): did not alter thermal pain thresholds
[7]
  mechanical pain thresholds vs vehicle (in words): significantly increased mechanical pain thresholds
  onset of analgesic effect post treatment: 1 h
[8]
  A-delta-fiber-mediated responses (in words): little effects

## CCN(CC)CC(=O)Nc1c(C)cccc1C [Lidocaine, lidocaine]
[2]
  thermal and mechanical pain thresholds (in words): produced positive control
[5]
  analgesic effect on normal nociceptive pain (in words): produced analgesic effect on normal nociceptive pain
